Measurements published in patent publication US20160250285A1, “NEUROPROTECTIVE PEPTIDES” (priority 2013, published 2016).
pIC50: −log10 of the molar value. “Also recorded” adds a separate entry of the source. Ends that are not written are not given here.

Columns and labels:
[1] = test system: permanent middle cerebral artery occlusion (MCAO) stroke model; experiment: Rat permanent middle cerebral artery occlusion (MCAO) stroke model; assay type: in vivo; conditions: 1 μmol/kg intravenously 30 min post-MCAO
Protocol: Administration of peptide (DR9: rrrrrrrrr-NH2; R12, R15, R18, protamine sulphate; protamine) or vehicle (saline: 0.9% NaCl) treatment solution was performed at 30 min post-MCAO. The peptide treatment comprised DR9 in saline (600 μl) to provide an intravenous loading dose of 1 μmol/kg or 1000 nmol/kg given over 5-6 min via the right jugular vein.
This study was approved by the Animal Ethics Committee of the University of Western Australia. Male Sprague Dawley rats weighing 270 g to 350 g were kept under controlled housing conditions with 12 hour light-dark cycle with free access to food and water. Experimental animals were fasted overnight and subjected to permanent middle cerebral artery occlusion (MCAO) as follows.
Anaesthesia was induced with 4% isoflurane and a 2:1 mix of N2O and O2 via mask. Anaesthesia was maintained at 1.7-2% isoflurane. Cerebral blood flow (CBF) was monitored continuously using laser Doppler flowmetry (Blood FlowMeter, AD Instruments, Sydney, Australia). The probe was located 1 mm caudal and 4 mm lateral (right) to the bregma. A cannula was inserted in the right femoral artery to continuously monitor blood pressure and to provide samples for blood glucose and blood gas readings. Blood glucose was measured using a glucometer (MediSense Products, Abbott Laboratories, Bedford, Mass., USA) and blood gases were measured using a blood gas analyser (ABL5, Radiometer, Copenhagen, Denmark). Blood pressure was maintained at 80-100 mmHg. During surgery, rectal temperature was maintained at 37±0.5° C. and warming applied with a fan heater when necessary. For intravenous infusions, a length of PVC line primed with heparinised saline was tied in place in the right jugular vein, then externalised through a dorsal mid-scapular incision to a tether/swivel system (Instech Laboratories, Philadelphia, USA) designed to permit free movement.
The right common carotid artery (CCA) was exposed via a ventral neck incision. […] The isolated section of the ECA was ligated and cauterised to create a stump. The carotid body was removed and the pterygopalatine artery was ligated. A 4-0 nylon monofilament with a 0.39 mm diameter silicone tip (Doccol, Redlands, Calif., USA) was inserted through the ECA stump into the CCA and advanced rostrally into the internal carotid artery (ICA) until the laser Doppler flowmetry recorded a >30% decrease from baseline of cerebral blood flow. The monofilament was secured in two places (at the base of the ECA stump and on the ICA) for the remainder of the experiment. Animals were given post-operative analgesia consisting of pethidine (3 mg/kg intramuscular) and bupivacaine (1.5 mg/kg subcutaneously) at head and leg incision sites.
Post-surgery animals were allowed to recover in a climate-controlled chamber and their core body temperature monitored and maintained at 37±0.5° C. by a cooling/heating fan when required for 3-4 hours.
Animals were sacrificed 24 hours post-MCAO with intra-peritoneal injections of sodium pentobarbitone (900 mg/kg). […] Slices were scanned and images were analysed by an operator blind to treatment status using ImageJ 3rd edition (NIH, USA). The total infarct volume was determined by adding the areas of infarcted tissue on both sides of the 2 mm sections. These measured areas were multiplied by half slice thickness (1 mm), and corrected for cerebral oedema by multiplying the ratio of affected to normal hemisphere areas. […]

[2] = test system: primary cortical neuronal cultures; experiment: In vitro ischemia / oxygen-glucose deprivation (OGD) model, neurons; assay type: cell-based, rat; conditions: for neuroprotection when added for 15 minutes after OGD: FIGS. 31, 20, 22, 1 μM and 5 μM in FIG. 31
Protocol: Establishment of cortical cultures was as previously described (Meloni et al. 2001). Briefly, cortical tissue from E18-E19 Sprague-Dawley rats was dissociated in Dulbecco's modified Eagle medium (DMEM; Invitrogen, Australia) supplemented with 1.3 mM L-cysteine, 0.9 mM NaHCOa, 10 units/ml papain (Sigma, USA) and 50 units/ml DNase (Sigma) and washed in cold DMEM/10% horse serum. Neurons were resuspended in Neurobasal (Invitrogen) containing 2% B27 supplement (B27; Invitrogen). Before seeding, 96-well sized glass wells (6 mm diameter, ProTech, Australia) or 96-well plastic plates (ProSciTech, Australia) were coated with poly-D-lysine overnight (50 ml/well: 50 mg/mL; 70-150 K, Sigma). Excess poly-D-lysine solution was then removed and replaced with Neurobasal (containing 2% B27; 4% fetal bovine serum; 1% horse serum; 62.5 mM glutamate; 25 mM 2-mercaptoethanol; and 30 mg/mL streptomycin and 30 mg/mL penicillin). Neurons were plated to obtain ≈10,000 viable neurons for each well on day in vitro 11-12. Neuronal cultures were maintained in a CO2 incubator (5% CO2, 95% air balance, 98% humidity) at 37° C. On day in vitro 4 one third of the culture medium was removed and replaced with fresh Neurobasal/2% B27 containing the mitotic inhibitor, cytosine arabinofuraNOside (1 mM final concentration; Sigma). On day in vitro 8 one half of the culture medium was replaced with Neurobasal/2% B27. Cultures were used on day in vitro 11 or 12 after which time they routinely consist of >97% neurons and 1-3% astrocytes (Meloni et al. 2001).
The in vitro ischemia model used for primary cortical neuronal cultures was performed as previously described (Meloni et at 2011) Briefly, culture media was removed from wells (glass 96-well plate format) and washed with 315 μl of glucose free balanced salt solution (BSS; mM: 116 NaCl, 5.4 KCl, 1.8 CaCl2, 0.8 MgSO4, 1 NaH2PO4; pH 6.9) before the addition of 60 μl BSS containing cell penetrating or control peptides (see Table 1). A non-peptide positive control consisting of the glutamate receptor blockers (5 μM MK801/5 μM 6-cyano-7-nitroquinoxaline: MK801/CNQX) was also included. In vitro ischemia was initiated by placing wells in an anaerobic incubator (Don Whitely Scientific, England; atmosphere of 5% CO2, 10% H2 and 85% argon, 98% humidity) at 37° C. for 55 minutes. Upon removal from the anaerobic incubator, 60 μl of Neurobasal/2% N2 supplement was added to the wells and cultures incubated for a further 24 hours at 37° C. in the CO2 incubator. Control cultures received the same BSS wash procedures and media additions as ischemic treated cultures before incubation at 37° C. in the CO2 incubator.
Control cultures underwent the same BSS wash procedures and media additions as OGD treated cultures.
Twenty-four hours after insult, neuronal cultures were examined by light microscopy for qualitative assessment of neuronal cell viability. Neuronal viability was quantitatively measured by 3-(4,5,dimethyliazol-2-yl)-5-(3-carboxymethoxy-phenyl)-2-(4-sulfophenyl)-2H-tetrazolium salt (MTS) assay (Promega, Australia). The MTS assay measures the cellular conversion of the tetrazolium salt to a water-soluble brown formazan salt, which is detected spectrophotometrically at 490 nm. MTS absorbance data were converted to reflect proportional cell viability relative to both the untreated and treated controls, with the untreated control taken as 100% viability, and presented as mean±SEM. […] Viability data was analysed by ANOVA, followed by post-hoc Fischer's PLSD test, with P<0.05 values considered statistically significant. Four- to six wells were used in all assays.

[3] = test system: primary cortical neuronal cultures
Protocol: Briefly, cortical tissue from E18-E19 Sprague-Dawley rats was dissociated in Dulbecco's modified Eagle medium (DMEM; Invitrogen, Australia) supplemented with 1.3 mM L-cysteine, 0.9 mM NaHCOa, 10 units/ml papain (Sigma, USA) and 50 units/ml DNase (Sigma) and washed in cold DMEM/10% horse serum. Neurons were resuspended in Neurobasal (Invitrogen) containing 2% B27 supplement (B27; Invitrogen). Before seeding, 96-well sized glass wells (6 mm diameter, ProTech, Australia) or 96-well plastic plates (ProSciTech, Australia) were coated with poly-D-lysine overnight ([…]: 50 mg/mL; 70-150 K, Sigma). […] Neurons were plated to obtain ≈10,000 viable neurons for each well on day in vitro 11-12. […] On day in vitro 4 one third of the culture medium was removed and replaced with fresh Neurobasal/2% B27 containing the mitotic inhibitor, cytosine arabinofuraNOside (1 mM final concentration; Sigma). On day in vitro 8 one half of the culture medium was replaced with Neurobasal/2% B27.
To induce excitotoxicity, 50 μl of Neurobasal/2% B27 containing glutamic acid (200 μM) or kainic acid (400 μM) or NMDA (200 μM) was added to the culture wells (100 μM glutamic acid, 200 μM kainic acid and NMDA 100 μM final concentration). Cultures were incubated at 37° C. in the CO2 incubator for 5 minutes for glutamic acid, 45 minutes for kainic acid and 10 minutes for NMDA exposure, after which time the media was replaced with 100 μl of 50% Neurobasal/2% N2 supplement (Invitrogen) and 50% balanced salt solution (BSS; see below). Cultures were incubated for a further 24 hours at 37° C. in the CO2 incubator. The untreated controls with or without glutamic acid or kainic acid treatment received the same wash steps and media additions.
Following this step, cultures were treated as described above. Untreated controls with or without glutamic acid exposure received the same wash steps and media additions. In addition, a post-glutamic acid exposure CPP treatment (5 μM) experiment was performed for the R9 peptide and the JNKI-1D-TAT control peptide.
For pre-glutamic acid exposure experiments, neurons were exposed to peptide(s) for a 10 minute period, immediately before or 1, 2, 3, 4 or 5 hours prior to glutamic acid exposure. […] At the relevant peptide pre-treatment time, media was removed and replaced with 100 μl of Neurobasal/2%. […] Following 5-minute glutamic acid exposure, neuronal culture wells were treated as described above. For all experiments untreated controls with or without glutamic acid treatment underwent the same incubation steps and media additions.
Heparin (for injection) was obtained from Pfizer (1000 IU/ml). Two different heparin experiments were performed: 1. Peptides were incubated with heparin (20 IU/ml) in Neurobasal/B27 for 5 minutes at room temperature, before addition to culture wells (50 μl) for 15 minutes at 37° C. in the CO2 incubator. Following the incubation period, media in wells was removed and replaced with 100 μl of Neurobasal/2% B27 containing glutamic acid (100 μM), and subsequently treated as described above; 2. Media in wells was replaced with Neurobasal/2% B27 containing heparin (50 μl; 40 IU/ml) and incubated for 5 minutes at 37° C. in the CO2 incubator. After the incubation period, peptides or glutamate receptor blockers (MK801/CNQX) in Neurobasal/2% B27 (50 μl) were added to the culture wells and cultures incubated for a further 10 minutes at 37° C. in the CO2 incubator. Following the incubation period, media in wells was removed and replaced with 100 μl of Neurobasal/2% B27 containing glutamic acid (100 μM), and subsequently treated as described above. For all experiments, non-heparin treated peptide controls with glutamic acid treatment underwent the same incubation steps and media additions.
Twenty-four hours after insult, neuronal cultures were examined by light microscopy for qualitative assessment of neuronal cell viability.

[4] = test system: intracellular calcium influx in neuronal cultures; experiment: Intracellular calcium influx (Fura-2 AM) after glutamic acid; assay type: cell-based, rat; conditions: peptide 5 μM for 10 min, removed before 100 μM glutamic acid (FIG. 44)
Protocol: Fura-2 AM was used for intracellular calcium assessment. Representative fluorescent Fura-2 AM tracers; fluorescence intensity (FI) of neuronal cultures 30 sec before and following addition (arrow) of glutamic acid (100 μM final concentration). Peptides or glutamate receptor blockers were added to neuronal cultures for 10 min and removed (time 0) before glutamic acid. Values are mean±SE; n=3. Peptide concentration was 5 μM.
Briefly, cortical tissue from E18-E19 Sprague-Dawley rats was dissociated in Dulbecco's modified Eagle medium (DMEM; Invitrogen, Australia) supplemented with 1.3 mM L-cysteine, 0.9 mM NaHCOa, 10 units/ml papain (Sigma, USA) and 50 units/ml DNase (Sigma) and washed in cold DMEM/10% horse serum. Neurons were resuspended in Neurobasal (Invitrogen) containing 2% B27 supplement (B27; Invitrogen). Before seeding, 96-well sized glass wells (6 mm diameter, ProTech, Australia) or 96-well plastic plates (ProSciTech, Australia) were coated with poly-D-lysine overnight (50 ml/well: 50 mg/mL; 70-150 K, Sigma). Excess poly-D-lysine solution was then removed and replaced with Neurobasal (containing 2% B27; 4% fetal bovine serum; 1% horse serum; 62.5 mM glutamate; 25 mM 2-mercaptoethanol; and 30 mg/mL streptomycin and 30 mg/mL penicillin). Neurons were plated to obtain ≈10,000 viable neurons for each well on day in vitro 11-12. Neuronal cultures were maintained in a CO2 incubator (5% CO2, 95% air balance, 98% humidity) at 37° C. On day in vitro 4 one third of the culture medium was removed and replaced with fresh Neurobasal/2% B27 containing the mitotic inhibitor, cytosine arabinofuraNOside (1 mM final concentration; Sigma). On day in vitro 8 one half of the culture medium was replaced with Neurobasal/2% B27. Cultures were used on day in vitro 11 or 12 after which time they routinely consist of >97% neurons and 1-3% astrocytes (Meloni et al. 2001).

[5] = test system: brain endothelial cells (bEND3 cells); experiment: In vitro ischemia/OGD model, bEND3 cells; assay type: cell-based; conditions: peptide during/after ischemia (FIG. 3c) or 15 min before OGD (FIGS. 23, 24)
Protocol: The in vitro ischemia model was also used for bEND3 cells, SH-SY5Y cells, and astrocytes. For bEND3 cells anaerobic incubation was extended to 2-3 hours and upon removal from the anaerobic incubator, 60 μl of DMEM/2% FCS was added to wells. […] Upon removal from the anaerobic incubator, 60 μl of DMEM/2% FCS was added to wells.
Twenty-four hours after insult, neuronal cultures were examined by light microscopy for qualitative assessment of neuronal cell viability. Neuronal viability was quantitatively measured by 3-(4,5,dimethyliazol-2-yl)-5-(3-carboxymethoxy-phenyl)-2-(4-sulfophenyl)-2H-tetrazolium salt (MTS) assay (Promega, Australia). The MTS assay measures the cellular conversion of the tetrazolium salt to a water-soluble brown formazan salt, which is detected spectrophotometrically at 490 nm. MTS absorbance data were converted to reflect proportional cell viability relative to both the untreated and treated controls, with the untreated control taken as 100% viability, and presented as mean±SEM. For studies using astrocytes, bEND3, and SH-Y5Y cells, raw MTS data was used to generate graphs. Viability data was analysed by ANOVA, followed by post-hoc Fischer's PLSD test, with P<0.05 values considered statistically significant. Four- to six wells were used in all assays.

primary rat astrocytes = experiment: Astrocyte toxicity model; assay type: cell-based; conditions: 2.5 to 10 μM, 24 hour exposure (FIG. 43)
Protocol: A brain endothelial cell line (bEND3) and a neuroblastoma cell line (SH-SY5Y) were also used for some experiments. bEND3 and SH-SY5Y cells were cultured using standard techniques in DMEM plus 5 or 15% foetal calf serum. Rat primary astrocytes were obtained and cultured as described for cortical neurons except DMEM plus 10% foetal calf serum was used instead of Neurobasal/2% B27, and the mitotic inhibitor, cytosine arabinofuraNOside was not used.
For neuronal cultures peptides were added to culture wells (96-well plate format) by removing media and adding 100 μl of 50% Neurobasal/2% N2 supplement and 50% BSS containing CPPs, JNKI-1 D-TAT or TAT-NR2B9c. Control cultures received of 50% Neurobasal/2% N2 supplement and 50% BSS media only. Cultures were incubation at 37° C. in the CO2 incubator for 20 hours, after which time cell viability was assessed using the MTS assay. For bEND3 cultures, peptides were added to culture wells (96-well plate format) by removing media and adding 100 μl of DMEM/2% FCS containing peptide. Control cultures received 100 μl of DMEM/2% FCS only, Cultures were incubation at 37° C. in the CO2 incubator for 0.5, 1 or 2 hours, after which time cell viability was assessed using the MTS assay. […] Cultures were incubation at 37° C. in the CO2 incubator for 24 hours, after which time cell viability was assessed using the MTS assay.
Twenty-four hours after insult, neuronal cultures were examined by light microscopy for qualitative assessment of neuronal cell viability. Neuronal viability was quantitatively measured by 3-(4,5,dimethyliazol-2-yl)-5-(3-carboxymethoxy-phenyl)-2-(4-sulfophenyl)-2H-tetrazolium salt (MTS) assay (Promega, Australia). The MTS assay measures the cellular conversion of the tetrazolium salt to a water-soluble brown formazan salt, which is detected spectrophotometrically at 490 nm. MTS absorbance data were converted to reflect proportional cell viability relative to both the untreated and treated controls, with the untreated control taken as 100% viability, and presented as mean±SEM. […]

## N=C(N)NCCC[C@H](NC(=O)[C@H](CCCNC(=N)N)NC(=O)[C@H](CCCNC(=N)N)NC(=O)[C@H](CCCNC(=N)N)NC(=O)[C@H](CCCNC(=N)N)NC(=O)[C@H](CCCNC(=N)N)NC(=O)[C@H](CCCNC(=N)N)NC(=O)[C@H](CCCNC(=N)N)NC(=O)[C@H](CCCNC(=N)N)NC(=O)[C@H](CCCNC(=N)N)NC(=O)[C@H](CCCNC(=N)N)NC(=O)[C@@H](N)CCCNC(=N)N)C(=O)O [Peptide R12]
[1]
  neuroprotective activity in vivo: possessed neuroprotective activity in vivo
[2]; FIG. 32
  neuroprotection, peptide for 10 minutes, 1 to 3 hours prior to OGD: effective
[2]
  neuroprotection when added for 15 minutes after OGD: Neuroprotection is displayed
[2]; added after anaerobic incubation until experiment end (FIGS. 3b, 16, 17)
  neuroprotection when added post-in vitro ischemia/OGD: displayed neuroprotective effects; also recorded: effective
[3]; 0 min post-insult (FIG. 1d)
  neuroprotection when added immediately after glutamic acid exposure: highly effective
[3]; FIG. 1i, comparison at 0.5 μM and 1 μM
  neuroprotection, milder insult: more effective than R9
[3]; FIG. 28
  neuroprotection, peptide present during the 5 minute glutamic acid insult only: effective
[3]; FIG. 29, FIG. 14
  neuroprotection, 10 minute pre-exposure removed immediately prior to insult: effective
[3]; FIG. 30
  neuroprotection, peptide for 10 minutes, 1 to 4 hours prior to glutamic acid insult: effective
[3]; heparin 20 IU/ml with peptide or 40 IU/ml on cultures (FIGS. 39, 40)
  effect of heparin on neuroprotective action: blocks neuroprotective actions
[3]; read-out: IC50: Glutamic acid model, Table 4, polyarginine peptides, from dose response graph FIG. 1e
  pIC50: 6.36
[4]
  calcium influx after glutamic acid: to varying degrees reduced calcium influx

## PRRRRASRRIRRRRRPRVSRRRRRGGRRRR [Ptm4]
[5]
  protection of bEND3 cells (cell death / viability after in vitro ischemia/OGD): significantly increased cell viability
[5]; listed as ptm4
  protection of bEND3 cells (cell death / viability after in vitro ischemia/OGD): protective
[2]
  neuroprotection when added for 15 minutes after OGD: neuroprotective
[2]; discussion summary
  neuroprotection in the OGD model (overall statement): neuroprotective
[3]; peptide 15 min prior to and during glutamic acid exposure, viability 24 h, MTS
  neuroprotection (neuronal viability): neuroprotective

## PRRRRRSSSRPIRRRRRPRASRRRRRGGRRRR [Ptm1]
Primary rat astrocytes
  astrocyte cell death following peptide exposure: did not cause significant astrocyte cell death

## PRRRRSSSRPVRRRRRPRVSRRRRRRGGRRRR [Ptm5]
Primary rat astrocytes
  astrocyte cell death following peptide exposure: did not cause significant astrocyte cell death

## VSRRRRRRGGRRRR [LMWP]
Primary rat astrocytes
  astrocyte cell death following peptide exposure: did not cause significant astrocyte cell death
